# Results from patent US20230414564A1, “BLUE LIGHT OXIDATION INHIBITOR AND SCREENING METHOD FOR SAME” (SHISEIDO COMPANY, LTD., priority 2020, published 2023).
# Entries after “also recorded” stand apart in the source; their conditions may differ.
# Tests used:
# [1] = UPE count method (in vitro), linoleic acid mixture irradiated with blue light or UVA; details: for blue light oxidation-inhibiting effect (rate of change in blue light-induced UPE): 5 wt % aqueous solution of candidate in linoleic acid mixture, blue light 430 nm LED 6 mW/cm^2, 10 minutes, UPE integrated for 300 seconds; for inhibiting effect against blue light oxidation compared with inhibiting effect against oxidation by UVA (UPE): linoleic acid mixture, blue light 430 nm vs UVA 300 to 400 nm
# Description: The candidate substances listed in Table 1 were added to ultrapure water to prepare 5 wt % aqueous solutions as samples.
# The samples were prepared by mixing the substances in the following compositions with linoleic acid and oleic acid as biological components. As a control, ultrapure water was used instead of a 5% aqueous solution of the candidate substance.
# A 2 mL portion of the sample prepared by the method described above was added to a plastic container and irradiated with 6 mW/cm^2 blue light (430 nm LED, CL-H1-430-9-1, Asahi Spectra Co., Ltd.) using an LED light source (CL-1501, Asahi Spectra Co., Ltd.), for a period of 10 minutes. The experiment was conducted while shielded, to exclude the effects of light of other wavelengths. For the control, ultrapure water was added instead of the starting material aqueous solution.
# The irradiated sample was transferred to a quartz glass container and set in the black box of a photon counter (Tohoku Electronic Industrial Co.). Photon counting of UPE was initiated one minute after irradiation was complete. UPE was detected by a built-in photomultiplier tube (PMT, R2257P, Hamamatsu Photonics, K.K.) in the photon counter, with measurement being conducted while shielded.
# The integrated value of UPE intensity for 300 seconds after the start of UPE measurement was determined and the rate of change in UPE was calculated by formula 2, to evaluate the oxidative stress inhibiting effect.
# Rate of change in UPE=(UPE intensity of material added sample−UPE intensity of control sample (non-irradiated))−(UPE intensity of control sample−UPE intensity of control sample (non-irradiated)) Formula 2: […]
# human skin tissue = test: Measurement of oxidative stress by UPE imaging on human skin tissue; details: 20 μL of 5% aqueous solution on stratum corneum side, 40 minutes; blue light 430 nm 6 mW/cm^2, 10 minutes
# Description: A 20 μL aqueous solution of 5% hypotaurine was applied to the center of the stratum corneum side of human skin tissue (KAC Co., dorsal region), and allowed to stand for 40 minutes while shielded.
# After irradiation with blue light (430 nm LED, 6 mW/cm^2) for 10 minutes, the hypotaurine aqueous solution was wiped off and immediately observed by UPE imaging using a high-sensitivity cooled CCD camera (850S CCD42-40, Spectral Instruments Inc.), while shielded (photographing time: 10 minutes).
# [2] = DPPH radical scavenging rate (DPPH Antioxidant Assay Kit); details: 5 wt %, 1 wt % and 0.2 wt % aqueous solutions; 30 minutes at 25° C.; absorbance at 517 nm
# Description: Methods for measuring oxidation inhibiting effects by radical scavenging rate evaluation are known. The present inventors therefore examined oxidation inhibiting effects of the aforementioned candidate substances at different concentrations, by the following procedure using a DPPH Antioxidant Assay Kit (Dojindo Laboratories).
# The candidate substances of Example 1 were used as 5 wt %, 1 wt % and 0.2 wt % aqueous solutions. Blank 1, Blank 2, Sample and Sample Blank Solution listed in Table 3 were prepared by the manufacturer's protocol described in general below, and the radical scavenging rates were calculated.
# • 1. Each candidate substance was loaded into a 96 well plate as a 5 wt %, 1 wt % or 0.2 wt % aqueous solution. • 2. Water was added to Blank 1 and Blank 2 at 20 μl each. • 3. Assay Buffer was added at 80 μl to each well. • 4. After adding 100 μl of ethanol to Blank 2 and the Sample blank, it was thoroughly mixed by pipetting. • After adding 100 μl of DPPH working solution to the sample and Blank1, it was thoroughly mixed by pipetting. • 6. The plate was incubated for 30 minutes at 25° C. in a dark environment. • 7. The absorbance at 517 nm was measured with a plate reader (Spectramax 250, Molecular Devices). • 8. The radical scavenging rate (%) of each sample was calculated by the following formula 3.
# Radical scavenging rate (%)=[…]×100 Formula 3:
# (ACS=Blank1−Blank2, AS=Sample−Sample Blank)
# [3] = UPE count method (in vitro), linoleic acid mixture irradiated with blue light or UVA; details: 5 wt % aqueous solution in linoleic acid mixture; UVA lamp 300 to 400 nm 3.5 mW/cm^2
SMILES,blue light oxidation-inhibiting effect (rate of change in blue light-induced UPE) [1],inhibiting effect against blue light oxidation compared with inhibiting effect against oxidation by UVA (UPE) [1],UPE intensity after blue light irradiation (UPE imaging) (human skin tissue),DPPH radical scavenging power (radical scavenging rate) [2],UV oxidation inhibiting effect (rate of change in UV light-induced UPE) [3],blue light oxidation-inhibiting effect (rate of change in blue light-induced UPE) ([1]; listed as cysteine),blue light oxidation-inhibiting effect (rate of change in blue light-induced UPE) ([1]; listed as ascorbic acid glucoside)
"NCCS(=O)O [hypotaurine, Hypotaurine]",high inhibiting effect against blue light oxidation; also recorded: excellent blue light oxidation-inhibiting effects,higher than the inhibiting effect against oxidation by UVA,lowered,high radical scavenging power,–,–,–
"O=C1O[C@H]([C@@H](O)CO)C(O)=C1O [L(+)-ascorbic acid, L(+)-Ascorbic acid]",high blue light oxidation-inhibiting effect; also recorded: excellent blue light oxidation-inhibiting effects,–,–,high radical scavenging power,–,–,–
CC(C)(CO)[C@@H](O)C(=O)NCCC(=O)NCCSS(=O)(=O)[O-].CC(C)(CO)[C@@H](O)C(=O)NCCC(=O)NCCSS(=O)(=O)[O-].[Ca+2] [calcium pantetheine-S-sulfonate],high blue light oxidation-inhibiting effect; also recorded: excellent blue light oxidation-inhibiting effects,–,–,High radical scavenging power was not observed,UV oxidation inhibiting effect was found,–,–
"NCCS(=O)(O)=S [thiotaurine, Thiotaurine]",high inhibiting effect against blue light oxidation; also recorded: excellent blue light oxidation-inhibiting effects,higher than the inhibiting effect against oxidation by UVA,–,High radical scavenging power was not observed,–,–,–
"N[C@@H](CS)C(=O)O [L-cysteine, L-Cysteine, reference compound]",not found to have significant blue light oxidation-inhibiting effects,–,–,high radical scavenging power,–,little of the inhibiting effect against blue light oxidation,–
"O=C1O[C@H]([C@@H](O)CO)C(O)=C1O[C@H]1O[C@H](CO)[C@@H](O)[C@H](O)[C@H]1O [L-ascorbic acid glucoside, L-Ascorbic acid glucoside, reference compound]",not found to have significant blue light oxidation-inhibiting effects,–,–,high radical scavenging power,–,–,little of the blue light oxidation-inhibiting effect
